Assay results: PMC7016953 (Cells, 2020)

Legend:
[1] = tested on: T1, heteromeric TRPC3:TRPC6 channel complexes; assay: Fluo-4 Ca2+ influx assay in HEK293 cells co-expressing TRPC3 and TRPC6; type: cell-based; details: fluo-4 concentration response analysis
T1 construct: expressed in transfected cells; host or cells: HEK293, stably co-transfected
Procedure: All fluorometric Ca^2+ assays were done in (4-(2-hydroxyethyl)-1-piperazineethanesulfonic acid) (HEPES)-buffered saline (HBS), containing 132 mM NaCl, 6 mM KCl, 1 mM MgCl2, 1 mM CaCl2, 5.5 mM D-glucose, 10 mM HEPES, and 0.035% bovine serum albumin (BSA) adjusted to pH 7.4 with NaOH. For measurements in Ca^2+-free bath solutions, a modified HBS without CaCl2 was supplemented with 200 µM ethylene glycol-bis(β-aminoethyl ether)-N,N,N′,N′-tetraacetic acid (EGTA).
(§1) The primary compound screen and the generation of concentration response curves in HEK293 cells or in PC12 cells were performed by using a custom-made fluorescence plate imager built into a robotic liquid handling station equipped with a 96-tip multichannel head (Freedom Evo 150, Tecan, Männedorf, Switzerland) as described previously. To this end, trypsinized cell suspensions were loaded with 4 µM fluo-4/AM (Invitrogen, Thermo Fisher Scientific, Waltham, MA, U.S.A.) in cell culture medium for 30 min at 37 °C. After brief centrifugation, cells were resuspended in HBS and dispensed into black pigmented, clear-bottom 384-well plates (Greiner µClear, Frickenhausen, Germany). Plates were mounted on the imager, and fluorescence signals were recorded with a cooled Zyla 5.5 camera (Andor, Belfast, UK) through a 515 nm long pass filter. The image acquisition was controlled by the µManager software (http://micro-manager.org), and excitation with a LED array (470 nm) was synchronized by the camera trigger output. After baseline recording for about 60 s, the compound libraries or serial dilutions of activators or inhibitors were added to the cells by the liquid handling device. When inhibitory potencies were evaluated, a second pipetting step with the respective reference agonist was performed. Fluorescence intensities were calculated from image stacks for each well with ImageJ (National Institutes of Health, Bethesda, MD, U.S.A.), corrected for background signals, and normalized to the initial intensities (F/F0). […]

rTRPV2-YFP = tested on: T2, rTRPV2-YFP; assay: Selectivity profiling, fluo-4 [Ca2+]i response, TRPV2; type: cell-based, rat
T2 construct: expressed in transfected cells
Procedure: (§2) Human embryonic kidney 293 (HEK293) cells were stably transfected with expression plasmids that encode hTRPC3-YFP, hTRPC6-YFP, hTRPC7-YFP, mTRPC4ß-YFP, rTRPV1-CFP, rTRPV2-YFP, rTRPV3-YFP, mTRPV4-YFP, or hTRPM2 as previously described. Cell lines were cultured in Earle’s minimum essential medium (MEM; Sigma, Munich, Germany), supplemented with 10% fetal calf serum (Gibco Thermo Fisher Scientific, Darmstadt, Germany), 2 mM L-glutamine, and required concentrations of geneticin in a range of 0.4–1 mg/mL. A HEK293mTRPC5-YFP cell line was maintained and induced as described before. […] For electrophysiological and single cell [Ca^2+]i imaging experiments, PC12 cells were plated onto 25 mm poly-L-lysine-coated glass coverslips and measured 24–48 h after seeding. […]
(§3) The primary compound screen and the generation of concentration response curves in HEK293 cells or in PC12 cells were performed by using a custom-made fluorescence plate imager built into a robotic liquid handling station equipped with a 96-tip multichannel head (Freedom Evo 150, Tecan, Männedorf, Switzerland) as described previously. […] Plates were mounted on the imager, and fluorescence signals were recorded with a cooled Zyla 5.5 camera (Andor, Belfast, UK) through a 515 nm long pass filter. […] When inhibitory potencies were evaluated, a second pipetting step with the respective reference agonist was performed. […]

mTRPC4ß-YFP = tested on: T3, mTRPC4ß-YFP; assay: Selectivity profiling, fluo-4 [Ca2+]i response, TRPC4; type: cell-based, mouse; details: 100 µM
T3 construct: expressed in transfected cells
Procedure: as §2, §3

TRPM8 = tested on: T4, TRPM8; assay: Selectivity profiling, fluo-4 [Ca2+]i response, TRPM8; type: cell-based; details: 100 µM
T4 construct: expressed in transfected cells
Procedure: as §1, with “After baseline recording for about 60 s, the compound libraries or serial dilutions of activators or inhibitors were added to the cells by the liquid handling device.” left out

[2] = tested on: TRPC4, TRPC5, TRPA1, TRPM2, TRPM3, TRPM8, TRPV1, TRPV2, TRPV4, or TRPV4; assay: Selectivity profiling, inhibition of activator responses in the TRP channel panel; type: cell-based; details: 100 µM, subsequent stimulation with channel-specific activators
Procedure: as §2, §3

hTRPM2 = tested on: T5, hTRPM2; assay: Selectivity profiling, fluo-4 [Ca2+]i response, TRPM2; type: cell-based, human; details: 100 µM
T5 construct: expressed in transfected cells
Procedure: as §2, §3

mTRPM3α2 = assay: Selectivity profiling, fluo-4 [Ca2+]i response, TRPM3; type: cell-based, mouse; details: 100 µM
Procedure: as §2, §3

rTRPV3-YFP = tested on: T6, rTRPV3-YFP; assay: Selectivity profiling, fluo-4 [Ca2+]i response, TRPV3; type: cell-based, rat; details: 100 µM
T6 construct: expressed in transfected cells
Procedure: as §2, §3

In the case of `C[C@@H]1CC[C@H]2[C@@H](C)C(=O)O[C@@H]3O[C@@]4(C)CC[C@@H]1[C@]32OO4` [artemisinin], the “response of cells stably transfected with both TRPC3 and TRPC6” value [1] is reported as “in a very similar fashion as HEKTRPC3-YFP cells”, the “[Ca2+]i response, TRPV2” value (rTRPV2-YFP; 100 µM) is reported as “none of the cell lines responded” and the “response of TRPV2-expressing cells to 2-APB after artemisinin” value (rTRPV2-YFP; 100 µM artemisinin, 2-APB final concentration 300 µM) is reported as “slightly increased response”. The “[Ca2+]i response, TRPC4” value (mTRPC4ß-YFP) was “none of the cell lines responded”, the “[Ca2+]i response, TRPM8” value (TRPM8) was “none of the cell lines responded” and the “inhibition of the investigated channels compared to the solvent control” value [2] was “did not observe a significant inhibition”. The “[Ca2+]i response, TRPM2” value (hTRPM2) was “none of the cell lines responded”, the “[Ca2+]i response, TRPM3” value (mTRPM3α2) was “none of the cell lines responded” and the “[Ca2+]i response, TRPV3” value (rTRPV3-YFP) was “none of the cell lines responded”.
